This note sets out measurements from the CheMixHub viscosity set.

Molecules are shown by their SMILES. Where “and” joins values, the source holds several entries; their conditions need not be identical. Identical values can stand only once. ± gives the uncertainty stated by the source.

In general, viscosity refers to the resistance of a fluid to flow. Low values mean easy flow, high ones sluggish flow. Consider `C#CCO`, for which the viscosity is 1.345 ± 0.012 mPa·s (303.15 K, 101 kPa); 1.214 ± 0.011 mPa·s (308.15 K, 101 kPa); 1.221 ± 0.02 mPa·s (308.15 K, 101.32 kPa); 1.103 ± 0.01 mPa·s (313.15 K, 101 kPa); 1.12 ± 0.018 mPa·s (313.15 K, 101.32 kPa); 1.01 ± 0.0095 mPa·s (318.15 K, 101 kPa). Besides, the viscosity stood at 1.017 ± 0.017 mPa·s (318.15 K, 101.32 kPa); 0.9277 ± 0.0088 mPa·s (323.15 K, 101 kPa); 0.9331 ± 0.016 mPa·s (323.15 K, 101.32 kPa).

Regarding `CC(=O)c1ccccc1`, the viscosity is, setting by setting: (303.15 K, 100 kPa) 1.455 ± 0.0088 mPa·s; (303.15 K, 101 kPa) 1.533 ± 0.012 mPa·s (2×) and 1.533 ± 0.018 mPa·s and 1.533 ± 0.029 mPa·s; (308.15 K, 100 kPa) 1.415 ± 0.1 mPa·s; (313.15 K, 100 kPa) 1.233 ± 0.0076 mPa·s and 1.269 ± 0.1 mPa·s; (313.15 K, 101 kPa) 1.266 ± 0.018 mPa·s and 1.266 ± 0.02 mPa·s and 1.269 ± 0.061 mPa·s; (313.15 K, 101.3 kPa) 1.317 ± 0.26 mPa·s. Further, the viscosity by setting is: (323.15 K, 100 kPa) 1.061 ± 0.0067 mPa·s; (323.15 K, 101 kPa) 1.051 ± 0.044 mPa·s; (323.15 K, 101.3 kPa) 1.285 ± 0.26 mPa·s.

Take `CCN(CCO)CCO`: the viscosity runs as follows: (303.15 K, 101 kPa) 48.27 ± 0.7 mPa·s; (308.15 K, 101 kPa) 36.72 ± 0.57 mPa·s; (313.15 K, 101 kPa) 28.36 ± 0.43 mPa·s; (318.15 K, 101 kPa) 22.31 ± 0.33 mPa·s; (323.15 K, 101 kPa) 17.78 ± 0.28 mPa·s.

Take `CC[NH2+]CC.O=S(=O)([O-])O`: the viscosity is, setting by setting: (303.15 K, 101 kPa) 28.9 ± 0.6 mPa·s; (308.15 K, 101 kPa) 24.6 ± 0.51 mPa·s; (313.15 K, 101 kPa) 21.9 ± 0.45 mPa·s.

`CN(C)P(=O)(N(C)C)N(C)C`: the viscosity (303.15 K, 101.3 kPa) is 2.928 ± 0.077 mPa·s.
